Consider 3 compounds from patent US9815787B2, “Sulfonamide derivative or pharmaceutically acceptable acid addition salt thereof” (UNIVERSITY OF TSUKUBA, priority 2013, dated 2017).

The test concerns the target T1, OX2R (Homo sapiens, UniProt O43614).
T1 construct: expressed in transfected cells; host or cells: CHO (Chinese hamster ovary) cells constitutively expressing the OX2R gene and NFAT-luciferase (CHOOX2R)
T1 sequence (O43614 1-444): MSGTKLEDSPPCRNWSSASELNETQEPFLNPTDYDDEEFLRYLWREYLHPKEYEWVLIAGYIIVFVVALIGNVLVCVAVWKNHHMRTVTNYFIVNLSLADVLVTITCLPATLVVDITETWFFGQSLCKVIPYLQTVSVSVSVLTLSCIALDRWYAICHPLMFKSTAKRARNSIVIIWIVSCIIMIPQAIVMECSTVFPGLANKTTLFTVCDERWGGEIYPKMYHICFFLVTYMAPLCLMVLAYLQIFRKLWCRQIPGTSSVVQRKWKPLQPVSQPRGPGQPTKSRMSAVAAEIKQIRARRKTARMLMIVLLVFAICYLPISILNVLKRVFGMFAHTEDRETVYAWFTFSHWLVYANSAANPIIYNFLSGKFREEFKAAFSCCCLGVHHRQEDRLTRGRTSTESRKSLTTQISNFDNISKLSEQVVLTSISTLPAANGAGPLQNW
The test can be described thus: Evaluation of agonist activity against OX2R (CHOOX2R cells, Fura2AM fluorescence, FDSS3000). It is filed as cell-based. An outline of the steps:
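CHO cells stably expressing human OX2R (and NFAT-luciferase), cultured 48 h in 5% FBS DMEM. Agonist response read as change in Fura2AM fluorescence on compound addition in HEPES buffer. Final compound concentrations 0.1, 1.0 or 10 μM; 1% DMSO.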

Setting [1] is: test compound 0.1 μM; CHOOX2R cells; relative to orexin-A as full agonist (100%).
Where [2] appears, read: test compound 1.0 μM; CHOOX2R cells; relative to orexin-A as full agonist (100%).
Where [3] appears, read: test compound 10 μM; CHOOX2R cells; relative to orexin-A as full agonist (100%).

Usually EC50 stands for the midpoint of the concentration-response curve. The term Emax denotes the size of the effect at its maximum, as opposed to the concentration needed.

SMILES strings stand for the structures. Bounds are passed on as bounds.

`COc1ccc(-c2cccc(C(=O)N(C)C)c2)cc1S(=O)(=O)Nc1cccc(NCCNC(=O)c2cccc(C#N)c2)c1` [Example 72, 3′-(N-(3-((2-(3-cyanobenzamido)ethyl)amino)phenyl)sulfamoyl)-4′-methoxy-N,N-dimethyl-[1,1′-biphenyl]-3-carboxamide]: the “Response (0.1 μM (%))” value under setting [1] is listed as below 5%. Under setting [2], the “Response (1.0 μM (%))” value came out at 16%. For the same compound, the “Response (10 μM (%))” value under setting [3] is 88%.
In the case of `COc1ccccc1C(=O)NCCNc1cccc(NS(=O)(=O)c2cc(-c3ccccc3F)ccc2OC)c1` [Example 1, N-(2-((3-(2′-fluoro-4-methoxy-[1,1′-biphenyl]-3-ylsulfonamide)phenyl)amino)ethyl)-2-methoxybenzamide], where the note is “test compound 0.1 μM; relative to orexin-A as full agonist (100%); CHOOX2R cells”, the “Response (0.1 μM (%))” value is below 5%. Under “test compound 1.0 μM; relative to orexin-A as full agonist (100%); CHOOX2R cells”, the “Response (1.0 μM (%))” value came out at 21%. Where the note is “test compound 10 μM; relative to orexin-A as full agonist (100%); CHOOX2R cells”, the “Response (10 μM (%))” value is given as 57%.
As to `COc1ccc(-c2cccc(C(=O)N(C)C)c2)cc1S(=O)(=O)Nc1cccc(NCCNC(=O)c2c(F)cccc2F)c1` [Example 45, 3′-(N-(3-((2-(2,6-difluorobenzamido)ethyl)amino)phenyl)sulfamoyl)-4′-methoxy-N,N-dimethyl-[1,1′-biphenyl]-3-carboxamide], under “OX2R agonist activity; CHOOX2R cells”, the midpoint of the response, the EC50, lay at 115 nM. The Emax (conversion with orexin-A as full agonist (maximum agonist activity 100%)) is 100%. The “Response (0.1 μM (%))” value under setting [1] is below 5%. Besides, the “Response (1.0 μM (%))” value under setting [2] amounted to 80%. The “Response (10 μM (%))” value under setting [3] turned out to be 98%.
